Consider 12 molecules from patent publication US20260345601A1, “FORMS OF CARBAMATE DERIVATIVES AND RELATED USES” (NodThera Limited, priority 2022, published 2026).

Values after ≈ are worked out from the molar mass of the structure shown. “Also recorded” adds a separate entry of the source.

One data set relates to NLRP3 inflammasome. Particulars: reported in literature; cited from earlier work.
Data set [1] in a line: Chemical stability evaluation in solvents (Table F). It counts as physicochemical. The procedure: Chemical stability of this compound was evaluated in MeOH, Acetone, MEK, EtOAc, and IPAc at different temperature points.
Data set [2] can be described thus: TGA (thermo-gravimetric analysis)/thermal analysis. In kind it is physicochemical. Particulars: heated at 10 °C/min, nitrogen purge. The procedure:
Thermo-Gravimetric Analysis (TGA)
TA Instruments Q500: TGA data were collected on a TA Instruments Q500 TGA, equipped with a 16 position auto-sampler. Typically, 5-10 mg of each sample was loaded onto a pre-tared aluminium DSC pan and heated at 10 °C/min from ambient temperature to 350 °C. A nitrogen purge at 60 ml/min was maintained over the sample. The instrument control software was Advantage for Q Series and Thermal Advantage and the data were analysed using Universal Analysis or TRIOS.

Data set [3] in a line: Storage at 25 °C/97% RH and 40 °C/75% RH. It counts as physicochemical. The method, then: Chemical Purity Determination by High-Performance Liquid Chromatography (HPLC)
Purity analysis was performed on an Agilent HP1100/Infinity II 1260 series system equipped with a diode array detector and using OpenLAB software. The full method details are provided below:
Unless stated within the appropriate data tables, all HPLC purity data reported has been run using the HPLC Method No. 2.

Data set [4] in a line: Gravimetric vapour sorption (GVS). It counts as physicochemical. The procedure: Gravimetric Vapour Sorption (GVS)
Sorption isotherms were obtained using a SMS DVS Intrinsic moisture sorption analyser, controlled by DVS Intrinsic Control software. The sample temperature was maintained at 25 °C by the instrument controls. The humidity was controlled by mixing streams of dry and wet nitrogen, with a total flow rate of 200 ml/min. The relative humidity was measured by a calibrated Rotronic probe (dynamic range of 1.0-100% RH), located near the sample. The weight change, (mass relaxation) of the sample as a function of % RH was constantly monitored by a microbalance (accuracy±0.005 mg).
Typically, 5-30 mg of sample was placed in a tared mesh stainless steel basket under ambient conditions. The sample was loaded and unloaded at 40% RH and 25 °C (typical room conditions). A moisture sorption isotherm was performed as outlined below (2 scans per complete cycle). The standard isotherm was performed at 25 °C at 10% RH intervals over a 0-90% RH range. Typically, a double cycle (4 scans) was carried out. Data analysis was carried out within Microsoft Excel using the DVS Analysis Suite.
The sample was recovered after completion of the isotherm and re-analysed by XRPD.

The nature of data set [5]: Solubility in single solvents, Form 2 as starting material (Table D). It counts as physicochemical. Particulars: 20-25 °C. The method, then:
Solubility of Form 1 was measured in several single solvents using Form 2 as starting material, respectively. […] Thus, MeOH, Acetone, MEK, EtOAc and IPAc were selected for further chemical stability evaluation before starting solubility test with anti-solvents.

In the case of `O=[N+]([O-])C=Cc1ccc2c(c1)OCO2` [3,4-methylenedioxy-β-nitrostyrene], in the data set on NLRP3 inflammasome, the “Effect on NLRP3 activation” value was “impair NLRP3 activation”.
Take `Cc1ccc(S(=O)(=O)/C=C/C#N)cc1` [Bay 11-7082]: in the data set on NLRP3 inflammasome, the “Effect on NLRP3 activation” value is reported as “impair NLRP3 activation”.
On to `CC(C)OC(=O)[C@@H](Cc1ncccn1)OC(=O)Nc1c2c(cc3c1CCC3)CCC2` [Compound A, propan-2-yl(2R)-2-{[(1,2,3,5,6,7-hexahydro-s-indacen-4-yl)carbamoyl]oxy}-3-(pyrimidin-2-yl) propanoate], for which the “Chemical stability in words” value in data set [1] (Acetone and EtOAc, 23 h) was “slight degradation”; in data set [1] (IPAc, 50 °C, 24 h), “chemical stable”; in data set [1] (MeOH and MEK, 23 h), “serious degradation”. For the same molecule, the “Chemical stability: purity” value is given as 99.57% in data set [1] (Acetone, 40 °C, 0 h); 99.55% in data set [1] (Acetone, 40 °C, 5-6 h); 98.06% in data set [1] (Acetone, 40 °C, 23-24 h); 99.49% in data set [1] (EtOAc, 40 °C, 0 h); 99.46% in data set [1] (EtOAc, 40 °C, 5-6 h); 99.46% in data set [1] (EtOAc, 40 °C, 23-24 h). For the same molecule, the “Chemical stability: purity” value in data set [1] (EtOAc, 50 °C, 0 h) came out at 99.43%; in data set [1] (EtOAc, 50 °C, 5-6 h), 99.31%; in data set [1] (EtOAc, 50 °C, 23-24 h), 99.27%; in data set [1] (IPAc, 50 °C, 0 h), 99.70%; in data set [1] (IPAc, 50 °C, 5 h), 99.73%; in data set [1] (IPAc, 50 °C, 24 h) it was 99.76%. For the same molecule, the “Chemical stability: purity” value was 99.52% in data set [1] (MEK, 40 °C, 0 h); 99.51% in data set [1] (MEK, 40 °C, 5-6 h); 93.28% in data set [1] (MEK, 40 °C, 23-24 h); 99.38% in data set [1] (MEK, 50 °C, 0 h); 92.75% in data set [1] (MEK, 50 °C, 5-6 h); 87.20% in data set [1] (MEK, 50 °C, 23-24 h). In addition, the “Chemical stability: purity” value in data set [1] (MeOH, 50 °C, 0 h) is 99.12%; in data set [1] (MeOH, 50 °C, 5-6 h), 98.03%; in data set [1] (MeOH, 50 °C, 23-24 h) it was 90.58%.
In the case of `CC(C)OC(=O)[C@@H](Cc1ncccn1)OC(=O)Nc1c2c(cc3c1CCC3)CCC2` [Form 2, propan-2-yl(2R)-2-{[(1,2,3,5,6,7-hexahydro-s-indacen-4-yl)carbamoyl]oxy}-3-(pyrimidin-2-yl) propanoate], the “TGA weight loss before degradation” value in data set [2] is “No weight loss before degradation”. Besides, the “Storage: solid form” value in data set [3] (25 °C/97% RH) and in data set [3] (40 °C/75% RH) was “Crystalline - Form 2” in each case. Also, the “Stability at elevated storage” value in data set [3] (25 °C/97% RH and 40 °C/75% RH for 1 week) is “stable”. The “Stability of solid form at elevated conditions” value in data set [3] (elevated conditions) is “stable at elevated conditions”. Also, the GVS hygroscopicity result in data set [4] (25 °C) is listed as “Non-hygroscopic”. The GVS hysteresis result in data set [4] (25 °C) is recorded as “no hysteresis”. The GVS water uptake in data set [4] (25 °C, 0-90% RH) was ~0.15% reversible uptake from 0-90% RH; in data set [4] (25 °C, 40-90% RH) it was 0.09%. For the same molecule, the “XRPD post GVS” value in data set [4] (form after GVS experiment) was “remained Form 2; also recorded: Crystalline - Form 2”. Also, the “Form conversion after slurry (XRPD)” value in data set [5] (all selected solvents except water) is given as “converted to Form 1”. Also, the “Form after slurry (XRPD)” value in data set [5] (H2O, starting material Form 2) was “Form 2”. This molecule also showed a Solubility in data set [5] (H2O, starting material Form 2, XRPD Form 2) of 1 mg/mL (≈ 2440 µM).
With `NC[C@@H]1O[C@H](c2ccccc2)Cc2c1ccc(O)c2O` [Form A-68930], the “Effect on NLRP3 activation” value in the data set on NLRP3 inflammasome is “impair NLRP3 activation”.
As for `COc1ccc(Cl)cc1C(=O)NCCc1ccc(S(=O)(=O)NC(=O)NC2CCCCC2)cc1` [Glyburide], in the data set on NLRP3 inflammasome, the “Concentration of NLRP3 inhibition in words” value is listed as “micromolar concentrations” and the “Effect on NLRP3 activation” value is recorded as “specific inhibitor of NLRP3 activation”.
Take `OC[C@H]1O[C@@H](c2ccc(Cl)c(Cc3ccc(O[C@H]4CCOC4)cc3)c2)[C@H](O)[C@@H](O)[C@@H]1O` [epigliflozin]: in the data set with NLRP3 inflammasome, the “Effect on NLRP3 activation” value is “impair NLRP3 activation”.
Consider `CNCCC(Oc1ccc(C(F)(F)F)cc1)c1ccccc1` (stereo not drawn) [fluoxetine], for which the “Effect on NLRP3 activation” value with NLRP3 inflammasome is “impair NLRP3 activation”.
Take `OC(CNCC(O)C1CCc2cc(F)ccc2O1)C1CCc2cc(F)ccc2O1` (stereo not drawn) [nebivolol]: the “Effect on NLRP3 activation” value with NLRP3 inflammasome is given as “impair NLRP3 activation”.
As for `C=C1C(=O)O[C@H]2[C@H]1CC/C(C)=C/CC[C@@]1(C)O[C@@H]21` [parthenolide], the “Effect on NLRP3 activation” value in the data set on NLRP3 inflammasome is “impair NLRP3 activation”.
As to `O=c1c(O)c(-c2ccc(O)c(O)c2)oc2cc(O)cc(O)c12` [quercetin], the “Effect on NLRP3 activation” value with NLRP3 inflammasome is listed as “suppress NLRP3 activation”.
With `C[S+]([O-])CCCCN=C=S` (stereo not drawn) [sulforaphane], in the data set with NLRP3 inflammasome, the “Effect on NLRP3 activation” value was “suppress NLRP3 activation”.

In general, Solubility refers to the dissolved amount per volume that the medium holds. High values mean much dissolved substance, low ones little dissolved substance.
